This note sets out measurements from article PMC10447267, “Assessment of the potential of the MET inhibitor tepotinib to affect the pharmacokinetics of CYP3A4 and P-gp substrates” (Investigational New Drugs, 2023).

By IC50 is commonly meant the midpoint of a concentration-inhibition curve.

Molecules are shown by their SMILES.

Data set [1] concerns the target P-gp (Homo sapiens, UniProt P08183). Kind of data set: P-gp inhibition in Caco-2 cell monolayers with [3H]-digoxin. The format is in vitro ADME. Also noted: An in vitro assay in Caco-2 cell monolayers; endogenous in cells; host or cells: Caco-2. The procedure: An in vitro assay in Caco-2 cell monolayers was performed to assess the P-gp inhibition potential of tepotinib (Online Resource 4). [^3H]-digoxin was used as a P-gp probe substrate. Control experiments were conducted to ensure acceptable performance of the cells. The extent of inhibition in these studies, expressed as IC50, was determined by quantification of the transport or uptake of ^3H-digoxin in Caco-2 cells in the absence and presence of tepotinib.
To assess the potential clinical risk and to identify whether an in vivo DDI study was required, drug concentration ([I])/IC50 ratios and/or R-values were calculated considering the mean human steady state exposure of parent drug and its metabolite, observed at the clinical dose of 500 mg tepotinib. Results were assessed according to both FDA and EMA criteria.

For data set [2], the system named is CYP1A1/2. Kind of data set: CYP1A1/2 activity induction in primary human hepatocyte cultures. The format is in vitro ADME. Particulars: enzyme activity quantification. The method, then: In vitro studies in primary human hepatocyte cultures were conducted to assess the potential of tepotinib to induce human CYP1A1/2, 2B6 and 3A4/5 activity, the latter based on testosterone 6β-hydroxylation reactions (Online Resource 2). […] The studies included positive (rifampin) and vehicle (DMSO) controls. A negative control (flumazenil) was also included in the mRNA studies. The study designs, test systems and selection of prototypical inducers used in these studies were consistent with PhRMA, FDA and EMA guidelines.

Setting [3] is: P-gp, clinical dose of 500 mg once daily.

Chain of P-gp (P08183 whole entry): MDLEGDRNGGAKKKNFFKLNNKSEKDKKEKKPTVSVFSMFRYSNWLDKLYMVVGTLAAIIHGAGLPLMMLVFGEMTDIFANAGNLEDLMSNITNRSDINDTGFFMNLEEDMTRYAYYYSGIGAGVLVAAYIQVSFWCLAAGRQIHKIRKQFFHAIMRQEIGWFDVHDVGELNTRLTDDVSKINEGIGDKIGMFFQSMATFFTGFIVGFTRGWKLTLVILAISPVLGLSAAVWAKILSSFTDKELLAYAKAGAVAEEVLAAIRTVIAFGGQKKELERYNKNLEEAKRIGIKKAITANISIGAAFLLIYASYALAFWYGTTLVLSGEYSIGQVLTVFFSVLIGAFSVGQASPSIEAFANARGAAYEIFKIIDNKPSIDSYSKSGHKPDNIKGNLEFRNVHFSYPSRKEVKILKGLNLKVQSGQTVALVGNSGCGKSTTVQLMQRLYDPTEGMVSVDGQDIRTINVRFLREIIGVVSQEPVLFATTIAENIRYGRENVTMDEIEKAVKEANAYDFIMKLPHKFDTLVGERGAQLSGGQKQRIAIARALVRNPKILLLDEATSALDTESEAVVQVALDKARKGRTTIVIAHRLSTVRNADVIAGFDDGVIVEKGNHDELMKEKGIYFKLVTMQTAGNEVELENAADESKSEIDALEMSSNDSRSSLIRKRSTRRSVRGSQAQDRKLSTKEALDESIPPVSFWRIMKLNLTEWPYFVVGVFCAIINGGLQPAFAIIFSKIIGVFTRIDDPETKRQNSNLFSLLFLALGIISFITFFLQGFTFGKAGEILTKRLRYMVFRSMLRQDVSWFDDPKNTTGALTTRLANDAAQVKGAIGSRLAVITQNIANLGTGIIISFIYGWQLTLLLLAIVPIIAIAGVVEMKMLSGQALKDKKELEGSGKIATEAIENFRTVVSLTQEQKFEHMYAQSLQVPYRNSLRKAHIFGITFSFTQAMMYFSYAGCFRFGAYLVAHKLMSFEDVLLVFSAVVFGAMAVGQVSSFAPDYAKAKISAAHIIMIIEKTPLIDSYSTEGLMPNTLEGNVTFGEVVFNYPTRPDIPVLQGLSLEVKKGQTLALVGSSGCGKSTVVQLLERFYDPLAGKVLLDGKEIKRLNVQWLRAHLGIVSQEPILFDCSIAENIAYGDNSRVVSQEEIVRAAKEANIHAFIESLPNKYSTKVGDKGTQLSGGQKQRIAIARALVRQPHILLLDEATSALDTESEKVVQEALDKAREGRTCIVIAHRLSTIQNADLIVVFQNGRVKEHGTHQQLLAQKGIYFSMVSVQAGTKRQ

`CN1CCC(COc2cnc(-c3cccc(Cn4nc(-c5cccc(C#N)c5)ccc4=O)c3)nc2)CC1` [tepotinib]: in data set [1] (Caco-2 cell monolayers, [3H]-digoxin probe substrate, read-out: Apparent IC50, P-gp inhibition), the IC50 amounted to 410 nM. Also, in data set [1] (setting [3]), the “[I]/IC50 ratio (intestinal)” value is 8917 and the “[I]/IC50 ratio (systemic)” value was determined as 0.39. For the same compound, in data set [2], the “Induction of CYP1A1/2 activity” value is given as “less than 40 % of positive control”.
